Test results taken from patent US20120219568A1, “EPIDITHIODIOXO[…] USES THEREOF IN TREATING CANCER” (priority 2011, published 2012).

Columns and labels:
[1] = test system: Jurkat; test: MTT growth inhibition, Jurkat; type: cell-based; settings: Homo sapiens, T Cell Leukemia, MTT assay
Procedure: (§1) For cell viability assay, cells were seeded in wells of 96-well plates for 2 days and then treated with different concentrations of mushroom extract fractions or purified verticillin A for 2 days. The cells were then incubated with MTT (3-(4,5-dimethylthiazol-2-yl)-2,5-diphenyltetrazolium bromide) using the MTT assay kit (ATCC, Manassas, Va.) according to the manufacturer's instructions.
(§2) To determine whether verticillin A inhibits other types of tumor cell growth, Mammary carcinoma (Bcap-37 and MCF-7), heptocarcinoma (HepG2), cervical (HeLa), liver (SMMC-7721), lung (SPC-A1) cancer cells and T cell leukemia (Jurkat) were cultured in the presence of different concentrations of verticillin A and examined for the efforts of verticillin A on the growth rate of these tumor cells in vitro.

[2] = test system: SW620 cells; test: Cytochrome C release; type: cell-based, human; settings: SW620, combinational treatment of verticillin A and TRAIL
Procedure: (§3) Tumor cells were lysed in lysis buffer containing 20 mM HEPES, pH 7.4, 20 mM NaCl, 10% glycerol, 1% Triton X-100, and a protease inhibitor cocktail (Calbiochem, La Jolla, Calif.). Cellular proteins were separated by 12% or 4-20% SDS-PAGE gradient gels, transferred to Immobilon-P membranes (Millipore, Bedford, Mass.) or nitrocellulose (Bio-Rad, Hercules, Calif.), and probed with the following primary antibodies: anti-FLIP (Cell Sinnaling, Danvers, Mass.) at 1:250; anti-survivin (Santa Cruz Biotech) at 1:100; anti-cIAP1 (cell signaling) at 1:250; anti-xIAP (cell Signaling) at 1:500; anti-Bad (Cell Signaling) at 1:1000; anti-Bax (Cell Signaling) at 1:2000; anti-Mcl-1 (Santa Cruz) at 1:100); anti-A-CDase (BD Biosciences) at 1:1000; anti-CytC (BD Biosciences) at 1:1000; and β-actin (Sigma, St Louis, Mo.) at 1:8000. The blots were then washed and incubated with horseradish peroxidase-conjugated anti-goat (Santa Cruz Biotech), anti-mouse or rabbit (Amersham-Pharmacia, Piscataway, N.J.) IgGs. Blots were detected using the ECL Plus Western detection kit (Amersham Pharmacia Biotech).

[3] = test system: BNIP3; test: BNIP3 expression level; type: cell-based, human; settings: SW620 and HepG2 cells
Procedure: Because verticillin A enhances tumor cell apoptosis through the mitochondrion-dependent pathway, the expression levels of apoptosis-related genes of the mitochondrion-mediated apoptosis pathway was analyzed.

[4] = test system: sarcoma (MC-WST-724), and mammary carcinoma (MCF-7); test: TRAIL co-treatment apoptosis in other tumor cell types; type: cell-based; settings: co-treatment with verticillin A and TRAIL
Procedure: Cells were seeded in wells of 96-well plates for 2 days and then treated with different concentrations of mushroom extract fractions or purified verticillin A for 2 days. The cells were stained with propidium iodide (PI) (Trevigen, Gaithersburg, Md.) or PI plus annexin V-Alex Fluor 647 (Biolegend, San Diego, Calif.) and analyzed by flow cytometry.
The sensitization effects of verticillin A was examined in other types of tumor cells.

[5] = test system: SPC-A1; test: MTT growth inhibition, SPC-A1; type: cell-based; settings: SPCA1, Lung Carcinoma, MTT assay
Procedure: as §1, §2

[6] = test system: Hela; test: MTT growth inhibition, Hela; type: cell-based; settings: Homo sapiens, Cervical Cancer, MTT assay
Procedure: as §1, §2

[7] = test system: MCF-7; test: MTT growth inhibition, MCF-7; type: cell-based; settings: Homo sapiens, MCF7, Mammary Carcinoma, MTT assay
Procedure: as §1, §2

[8] = test system: A-CDase; test: A-CDase protein level, Western blot; type: cell-based, human; settings: after verticillin A treatment
Procedure: as §3
To elucidate the molecular mechanisms underlying verticillin A sensitization of tumor cells to TRAIL-mediated apoptosis, the protein levels of genes known to function in the mitochondrion-mediated apoptosis pathway were analyzed. […]

[9] = test system: TET1; test: TET1 expression, RT-PCR; type: cell-based, human; settings: colon carcinoma cells, dose-dependent
Procedure: FIG. 11A is an acrylamide gel showing that LS411N cells were treated with Verticillin A at the indicated concentrations for 24 h and analyzed for TET1, TET2 and TET3 level by RT-PCR.
TET1 is an enzyme with very recently identified function in converting 5-methylcytosine (5mC) to 5-hydroxylmethylcytosine (5hmC), and eventually to unmodified Cytosine to reverse DNA methylation (Veron N, Peters A H. Epigenetics: Tet proteins in the limelight. Nature 2011; 473:293-4; Ito et al. Tet proteins can convert 5-methylcytosine to 5-formylcytosine and 5-carboxylcytosine. Science 2011; 333:1300-3; Guo et al. Hydroxylation of 5-methylcytosine by TET1 promotes active DNA demethylation in the adult brain. Cell 2011; 145:423-34). […] Thus, Verticillin A is a small molecule TET1 activator. Verticillin A appears to be the first reported small molecule TET1 activator.

[10] = test system: multiple types of tumor cell lines; test: Growth inhibition of multiple types of tumor cell lines; type: cell-based
Procedure: as §1, §2

[11] = test system: SW620 tumor xenograft; test: SW620 tumor xenograft growth in athymic mice; type: in vivo
Procedure: Athymic mice were subcutaneously inoculated with human hepatoma HepG2 and colon carcinoma SW620 cells, respectively. The tumor-bearing mice were randomized into experimental groups. The control mice were given saline. The treatment group was intravenously injected with verticillin A at the doses of 1 and 2 mg/kg body weight. Tumor size was measured in 2 diameter with micrometer caliper at the indicate times to permit calculation of tumor volume, V=(a×b^2)/2, where “a” is the length and “b” is the width in millimeters. At the end of the experiment, all the animals were sacrificed, The tumor inhibitory rates were calculated using the following formula: [(mean tumor volume of control nude mice−mean tumor volume of treated nude mice)/mean tumor volume of control nude mice]×100%.
The disclosed observations indicate that verticillin A can dramatically increase TRAIL-induced tumor cell apoptosis. To determine whether these in vitro observations can be extended to enhance TRAIL-mediated tumor suppression in vivo, SW620 cells were injected subcutaneously to athymic mice, verticillin A and TRAIL, either used as single agent or in combination, were then injected to the tumor-bearing mice. Tumor growth rate were measured in different time points. Verticillin A can inhibit tumor cell growth in vitro at high dose and sensitize tumor cells to TRAIL-induced apoptosis at a low dose. […] As expected, SW620 tumors are resistant to TRAIL (Voelkel-Johnson C, et al. Mol Cancer Ther 2005 4(9):1320-7).

**Q.** How did the IC50 [1] turn out when `CN1C(=O)[C@]23SS[C@]1(C)C(=O)N2C1Nc2ccccc2[C@@]1(C12c4ccccc4NC1N1C(=O)[C@@]4(C)SS[C@]1(C(=O)N4C)[C@H]2O)[C@@H]3O` (some centres unmarked) [Verticillin A] was run?
**A.** 37 nM

**Q.** What about the “cytochrome C release” value [2] of the same compound?
**A.** dramatically increased cytochrome C release

**Q.** What about the BNIP3 expression level [3] of the same compound?
**A.** increased BNIP3 expression level in a dose-dependent manner

**Q.** What about the “apoptosis rate versus single agent alone” value [4] of the same compound?
**A.** significantly increased the apoptosis rate

**Q.** And the IC50 [5]?
**A.** 30 nM

**Q.** And the IC50 [6]?
**A.** 122 nM

**Q.** What about the IC50 [7] of the same compound?
**A.** 64 nM

**Q.** What about the A-CDase expression level [8] of the same compound?
**A.** decreased after verticillin A treatment at a dose-dependent manner

**Q.** And the TET1 expression [9]?
**A.** up-regulates TET1 expression

**Q.** And the “growth of tumor cells in vitro” value ([10]; Bcap-37, MCF-7, HepG2, HeLa, SMMC-7721, SPC-A1, Jurkat)?
**A.** significantly inhibited the growth of all these tumor cells

**Q.** And the IC50 ([10]; span over the tumor cell lines of Table 1, read-out: IC50 for multiple types of cancer cells)?
**A.** < 200 nM

**Q.** And the “tumor suppression activity, verticillin A alone” value ([11]; 0.125 mg/kg body weight)?
**A.** did not exhibit significant tumor suppression activity

**Q.** And the “tumor xenograft growth, combination treatment” value ([11]; low dose verticillin A (0.125 mg/kg) and TRAIL)?
**A.** significantly inhibited the tumor xenograft growth

**Q.** And the “lowest dose enhancing the efficacy of TRAIL in suppressing human cancer growth” value ([11]; nude mice)?
**A.** 0.125 mg/kg
